From publication PMC7031696 (Cell chemical biology, 2019)
Read-outs that look alike come from different tables or passages of the source.

Key:
[1] = test system: 3D7-MR4 trophozoite parasite-infected RBCs; assay: Metabolomic profiling (hydrophilic metabolite changes, UHPLC-MS); format: cell-based, Plasmodium falciparum
[2] = test system: asynchronous 3D7-A10 parasite cultures; assay: Standard 72-h exposure asexual blood stage susceptibility assay (IC50^72h); format: cell-based, Plasmodium falciparum; settings: Plasmodium falciparum, 3D7, 72 h, read-out: Overall (72hr assay) Mean IC50 (IC50^72h)
[3] = test system: Plasmodium falciparum 3D7-A10 parasites; assay: Stage specificity assay (8-h exposure of synchronized stages, IC50^8h); format: cell-based; settings: for IC50: Plasmodium falciparum

SMILES: CCOC(=O)C1=C(C)NC2=C(C(=O)CC(c3ccc(OC)c(OC)c3)C2)C1c1ccccc1Cl (stereo not shown) [GNF-Pf-5660, reference compound]
- peptide levels (hemoglobin catabolism signature) ([1]; 10 × IC50^72h, 2.5 hr, trophozoites): decreased peptide levels
- Log2(fold changes) 3-phosphoglycerate ([1]; metabolite 3-phosphoglycerate, log2 fold change): 0.0553
- Log2(fold changes) 4-Pyridoxic acid ([1]; metabolite 4-Pyridoxic acid, log2 fold change): 0.0311
- Log2(fold changes) 4-aminobutyrate ([1]; metabolite 4-aminobutyrate, log2 fold change): -0.1913
- Log2(fold changes) 4-phosphopantetheine ([1]; metabolite 4-phosphopantetheine, log2 fold change): -0.0588
- Log2(fold changes) 4-phosphopantothenate ([1]; metabolite 4-phosphopantothenate, log2 fold change): -0.0656
- Log2(fold changes) 5-aminopentanoic acid ([1]; metabolite 5-aminopentanoic acid, log2 fold change): 0.0000
- Log2(fold changes) 5-methyl-THF ([1]; metabolite 5-methyl-THF, log2 fold change): 0.0000
- Log2(fold changes) 5-phosphoribosyl-1-pyrophosphate ([1]; metabolite 5-phosphoribosyl-1-pyrophosphate, log2 fold change): 0.0000
- Log2(fold changes) 6-phospho-D-gluconate ([1]; metabolite 6-phospho-D-gluconate, log2 fold change): -0.0448
- Log2(fold change) HVDD ([1]; metabolite HVDD): -2.3471
- Log2(fold change) Hydroxyisocaproic acid ([1]; metabolite Hydroxyisocaproic acid): 0.0000
- Log2(fold change) IDP ([1]; metabolite IDP): 0.0000
- Log2(fold change) IMP ([1]; metabolite IMP): -0.0436
- Log2(fold change) Inositol ([1]; metabolite Inositol): 0.0000
- Log2(fold change) Isopentyl-PP ([1]; metabolite Isopentyl-PP): 0.0000
- Log2(fold change) L-arginino-succinate ([1]; metabolite L-arginino-succinate): -1.4037
- Log2(fold change) LD ([1]; metabolite LD): 0.0323
- Log2(fold change) Myristoyl/tetradecanoyl-CoA ([1]; metabolite Myristoyl/tetradecanoyl-CoA): 0.0000
- Log2(fold change) N-Acetyl-L-alanine ([1]; metabolite N-Acetyl-L-alanine): -0.5679
- Log2(fold change) N-acetyl-L-ornithine ([1]; metabolite N-acetyl-L-ornithine): -1.3851
- Log2(fold change) N-acetyl-glucosamine-1/6-phosphate ([1]; metabolite N-acetyl-glucosamine-1/6-phosphate): 0.1805
- Log2(fold change) N-acetyl-glutamate ([1]; metabolite N-acetyl-glutamate): 0.1150
- Log2(fold change) N-acetyl-glutamine ([1]; metabolite N-acetyl-glutamine): -0.5582
- Log2(fold change) N-carbamoyl-L-aspartate ([1]; metabolite N-carbamoyl-L-aspartate): -0.1586
- Log2(fold change) NAD+ ([1]; metabolite NAD+): -0.1007
- Log2(fold change) NADH ([1]; metabolite NADH): 0.4611
- Log2(fold change) NADP+ ([1]; metabolite NADP+): 0.0287
- Log2(fold change) NADPH ([1]; metabolite NADPH): 0.0479
- Log2(fold change) O-acetyl-L-serine ([1]; metabolite O-acetyl-L-serine): 0.0000
- Log2(fold change) Octoluse 8/1P ([1]; metabolite Octoluse 8/1P): -0.0806
- Log2(fold change) Octoluse Bisphosphate ([1]; metabolite Octoluse Bisphosphate): -0.3183
- Log2(fold change) PD ([1]; metabolite PD): -1.8683
- Log2(fold change) PE ([1]; metabolite PE): -1.8289
- Log2(fold change) PEE ([1]; metabolite PEE): -1.8489
- Log2(fold change) PEEK ([1]; metabolite PEEK): -2.1431
- Log2(fold change) PVNF ([1]; metabolite PVNF): -2.1997
- Log2(fold change) Pyroglutamic acid ([1]; metabolite Pyroglutamic acid): -0.1216
- Log2(fold change) Pyrophosphate ([1]; metabolite Pyrophosphate): 0.0000
- Log2(fold change) Ribose-5-phosphate ([1]; metabolite Ribose-5-phosphate): 0.0000
- Log2(fold change) S-adenosyl-L-homocysteine ([1]; metabolite S-adenosyl-L-homocysteine): -0.0693
- Log2(fold change) S-adenosyl-L-methioninamine ([1]; metabolite S-adenosyl-L-methioninamine): 0.0000
- Log2(fold change) S-adenosyl-L-methionine ([1]; metabolite S-adenosyl-L-methionine): 0.0000
- Log2(fold change) S-methyl-5'-thioadenosine ([1]; metabolite S-methyl-5'-thioadenosine): -0.0720
- Log2(fold change) SD ([1]; metabolite SD): -1.1525
- Log2(fold change) SDL ([1]; metabolite SDL): -1.7902
- Log2(fold change) SID ([1]; metabolite SID): 0.0000
- Log2(fold change) Sedoheptulose bisphosphate ([1]; metabolite Sedoheptulose bisphosphate): -0.1508
- Log2(fold change) Thiamine pyrophosphate ([1]; metabolite Thiamine pyrophosphate): 0.0000
- Log2(fold changes) UDP-D-glucose ([1]; metabolite UDP-D-glucose, log2 fold change): 0.0139
- Log2(fold changes) UDP-D-glucuronate ([1]; metabolite UDP-D-glucuronate, log2 fold change): 0.0860
- Log2(fold changes) UDP-N-acetyl-glucosamine ([1]; metabolite UDP-N-acetyl-glucosamine, log2 fold change): -0.0276
- Log2(fold changes) UDP ([1]; metabolite UDP, log2 fold change): 0.1561
- Log2(fold changes) UMP ([1]; metabolite UMP, log2 fold change): -0.3498
- Log2(fold changes) UTP ([1]; metabolite UTP, log2 fold change): 0.0000
- Log2(fold change) hydroxyphenylpyruvate ([1]; metabolite hydroxyphenylpyruvate): 0.0000
- Log2(fold change) hydroxyproline/Aminolevulinate ([1]; metabolite hydroxyproline/Aminolevulinate): 0.0000
- Log2(fold change) hypoxanthine ([1]; metabolite hypoxanthine): 0.0715
- Log2(fold change) indole ([1]; metabolite indole): -0.1422
- Log2(fold change) inosine ([1]; metabolite inosine): -0.1669
- Log2(fold change) isoleucine ([1]; metabolite isoleucine): 0.0000
- Log2(fold change) lactate ([1]; metabolite lactate): -0.0958
- Log2(fold change) leucine ([1]; metabolite leucine): 0.0000
- Log2(fold change) lysine ([1]; metabolite lysine): 0.0000
- Log2(fold change) malate ([1]; metabolite malate): -0.8784
- Log2(fold change) maleic acid ([1]; metabolite maleic acid): -0.8581
- Log2(fold change) methionine ([1]; metabolite methionine): -0.1925
- Log2(fold change) myo-inositol ([1]; metabolite myo-inositol): 0.0386
- Log2(fold change) nicotinamide mononucleotide ([1]; metabolite nicotinamide mononucleotide): -0.1106
- Log2(fold change) nicotinate ([1]; metabolite nicotinate): 0.1148
- Log2(fold change) ornithine ([1]; metabolite ornithine): -0.1689
- Log2(fold change) orotate ([1]; metabolite orotate): -0.3275
- Log2(fold change) orotidine-5'-phosphate ([1]; metabolite orotidine-5'-phosphate): -1.3140
- Log2(fold change) oxaloacetate ([1]; metabolite oxaloacetate): -0.1481
- Log2(fold change) p-aminobenzoate ([1]; metabolite p-aminobenzoate): -0.1878
- Log2(fold change) p-hydroxybenzoate ([1]; metabolite p-hydroxybenzoate): 0.0000
- Log2(fold change) pantothenate ([1]; metabolite pantothenate): -0.2858
- Log2(fold change) phenylalanine ([1]; metabolite phenylalanine): -0.3503
- Log2(fold change) phenylpyruvate ([1]; metabolite phenylpyruvate): 0.0000
- Log2(fold change) phosphoenolpyruvate ([1]; metabolite phosphoenolpyruvate): 0.2491
- Log2(fold change) prephenate ([1]; metabolite prephenate): -0.5893
- Log2(fold change) proline ([1]; metabolite proline): 0.0000
- Log2(fold change) pyridoxine ([1]; metabolite pyridoxine): -0.1054
- Log2(fold change) pyruvate ([1]; metabolite pyruvate): -0.3244
- Log2(fold change) riboflavin ([1]; metabolite riboflavin): -0.0162
- Log2(fold change) ribose ([1]; metabolite ribose): 0.0000
- Log2(fold change) ribose-phosphate ([1]; metabolite ribose-phosphate): -0.2537
- Log2(fold change) ribulose-5-phosphate ([1]; metabolite ribulose-5-phosphate): 0.0000
- Log2(fold change) serine ([1]; metabolite serine): 0.0000
- Log2(fold change) sn-glycerol-3-phosphate ([1]; metabolite sn-glycerol-3-phosphate): 0.1845
- Log2(fold change) succinate/Methylmalonic acid ([1]; metabolite succinate/Methylmalonic acid): -0.0086
- Log2(fold change) succinyl-CoA/methylmalonyl-CoA ([1]; metabolite succinyl-CoA/methylmalonyl-CoA): 0.0000
- Log2(fold change) taurine ([1]; metabolite taurine): 0.0000
- Log2(fold change) thiamine ([1]; metabolite thiamine): -0.1840
- Log2(fold change) threonine/homoserine ([1]; metabolite threonine/homoserine): 0.0000
- Log2(fold change) thymidine ([1]; metabolite thymidine): 0.0000
- Log2(fold changes) thymine ([1]; metabolite thymine, log2 fold change): 0.0000
- Log2(fold changes) trehalose-6-Phosphate ([1]; metabolite trehalose-6-Phosphate, log2 fold change): 0.0000
- Log2(fold changes) tryptophan ([1]; metabolite tryptophan, log2 fold change): -0.0821
- Log2(fold changes) tyrosine ([1]; metabolite tyrosine, log2 fold change): -0.1854
- Log2(fold changes) uridine ([1]; metabolite uridine, log2 fold change): -0.2184
- IC50 [2]: 4.4 nM
- Ratio lowest IC50 8hr/IC50 72hr ([3]; 3D7-A10): 18.0
- IC50 ([3]; 3D7, read-out: Early rings Mean IC50 (IC50^8h), 8-h exposure 0–8 hr, 3D7-A10, survival at 60 h): 119 nM
- IC50 ([3]; 3D7, read-out: Early trophozoites Mean IC50 (IC50^8h), 8-h exposure 16–24 hr, 3D7-A10, survival at 60 h): 108 nM
- IC50 ([3]; 3D7, read-out: Late rings Mean IC50 (IC50^8h), 8-h exposure 8–16 hr, 3D7-A10, survival at 60 h): 238 nM
- IC50 ([3]; 3D7, read-out: Late trophozoites Mean IC50 (IC50^8h), 8-h exposure 24–32 hr, 3D7-A10, survival at 60 h): 79.3 nM
- IC50 ([3]; 3D7, read-out: Schizonts Mean IC50 (IC50^8h), 8-h exposure 32–40 hr, 3D7-A10, survival at 60 h): 290 nM
- Stage of peak activity (Figure 6) ([3]; period when the parasite was most susceptible (lowest IC50^8h)): rings and trophozoites
